In assay [1] the test system is Jak2 and STAT5 phosphorylation in UT7 cells. As to the kind of experiment: Jak2 and STAT5 phosphorylation in UT7 cells with JAK or Src kinase inhibitors (Western). The format is cell-based. On the procedure:
10×10^7 UT7 cells were serum starved then treated with SKI 606 or AG490 for 30 minutes, CC5013 for 2 hours, and stimulated with EPO (1 U/ml) for 10 minutes at 37° C. Cells were lysed and […] run on a 4-15% Gradient gel (Bio-rad). Antibodies included p-STAT5 (Upstate, 1:1000 in 5% TBS/milk), total STAT5 (Cell Signaling, 1:10000 in 5% TBS/milk), and p-Jak2 (Santa Cruz, 1:500 in 5% TBS/milk). Blots were developed with an ECL detection kit (Amersham).
To further evaluate the mechanism by which lenalidomide enhances the EPO-R signal, STAT5 activation was assessed in response to EPO+lenalidomide treatment using selective pharmacologic inhibitors of JAK (AG490) or Src ([…]) kinases [FIG. 4].

In assay [2] the target is T1, rhu-CD45 (Homo sapiens, UniProt P08575).
T1 construct: purchased Calbiochem
T1 sequence (P08575 26-1306): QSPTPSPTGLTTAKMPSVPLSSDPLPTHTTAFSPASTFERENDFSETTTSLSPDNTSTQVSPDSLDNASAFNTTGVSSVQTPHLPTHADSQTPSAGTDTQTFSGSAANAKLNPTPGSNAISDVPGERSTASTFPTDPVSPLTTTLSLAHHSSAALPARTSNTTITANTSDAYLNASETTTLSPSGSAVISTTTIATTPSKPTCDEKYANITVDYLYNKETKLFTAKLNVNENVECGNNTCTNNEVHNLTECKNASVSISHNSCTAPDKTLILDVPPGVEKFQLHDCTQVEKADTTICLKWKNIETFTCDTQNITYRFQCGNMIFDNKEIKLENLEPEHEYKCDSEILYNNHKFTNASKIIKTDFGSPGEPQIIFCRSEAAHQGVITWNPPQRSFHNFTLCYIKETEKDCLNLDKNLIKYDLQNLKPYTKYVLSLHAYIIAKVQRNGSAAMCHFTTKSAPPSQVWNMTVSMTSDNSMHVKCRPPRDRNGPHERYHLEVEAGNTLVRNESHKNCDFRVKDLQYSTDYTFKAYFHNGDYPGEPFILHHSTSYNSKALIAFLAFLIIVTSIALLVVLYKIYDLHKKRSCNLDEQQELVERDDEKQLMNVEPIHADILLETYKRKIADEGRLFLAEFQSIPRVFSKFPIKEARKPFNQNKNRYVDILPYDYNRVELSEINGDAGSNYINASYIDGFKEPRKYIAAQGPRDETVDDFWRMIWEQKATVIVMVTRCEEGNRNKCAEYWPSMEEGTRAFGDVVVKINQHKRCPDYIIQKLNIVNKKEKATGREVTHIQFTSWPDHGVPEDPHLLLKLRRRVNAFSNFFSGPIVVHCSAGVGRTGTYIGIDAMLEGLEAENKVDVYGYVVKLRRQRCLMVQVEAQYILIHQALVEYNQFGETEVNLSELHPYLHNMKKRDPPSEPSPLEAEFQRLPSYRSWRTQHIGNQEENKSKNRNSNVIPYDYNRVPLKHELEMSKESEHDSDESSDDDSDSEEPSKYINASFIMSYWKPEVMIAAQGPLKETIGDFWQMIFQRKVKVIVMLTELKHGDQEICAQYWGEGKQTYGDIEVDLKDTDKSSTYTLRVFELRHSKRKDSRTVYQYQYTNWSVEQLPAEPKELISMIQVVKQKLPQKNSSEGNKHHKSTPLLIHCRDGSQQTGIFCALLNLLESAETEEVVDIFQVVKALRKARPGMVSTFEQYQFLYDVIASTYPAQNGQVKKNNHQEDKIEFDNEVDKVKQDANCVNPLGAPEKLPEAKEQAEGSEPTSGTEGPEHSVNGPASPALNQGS
As to the kind of experiment: BIOMOL Green CD45 Tyrosine Phosphatase Assay. The format is biochemical. The settings on record: 1 μM, recombinant CD45, substrate pp60c-Src. The procedure:
CD45-specific PTP activity was assayed as outlined in the BIOMOL Green™ CD45 Tyrosine Phosphatase Assay Kit. Briefly, 75 U of rhu-CD45 (Calbiochem) was incubated for 1H at 37° C. with the indicated inhibitors (1 μM CC5013 and thalidomide, 100 μM Na Orthovanadate, and 50 μM RWJ-60475 (CD45-specific PTP inhibitor) in 1× assay buffer. The substrate pp60c-Src was added at 200 μM and incubated for 1H at 37° C. Samples were read on a plate reader at 620 nm. Percent PTP activity was calculated according to the equation (OD of test sample/OD of control)×100.
This notion is in agreement with findings that lenalidomide suppressed cytosolic release of Csk that is dependent upon dephosphorylation of the Cbp/PAG Csk docking site (Tyr314) by CD45. To determine if lenalidomide inhibits CD45 phosphatase, recombinant CD45 PTP inhibition by lenalidomide and thalidomide was compared to the pan-PTP inhibitor sodium orthovanadate and the CD45-selective inhibitor, RWJ-60475 using the Biomol CD45 phosphatase assay. […] [FIG. 7].

Assay [3] has as its system AML-EH5q cells. Put plainly: Apoptosis by Annexin-V/PI flow cytometry in AML-EH5q cells. The settings on record: AML-EH5q (5q-deleted) cells, 24 hours. The format is cell-based. On the procedure: (§1) AML-EH5q (FIG. 8A) and U937 (FIG. 8B) cells were exposed to lenalidomide, thalidomide or vehicle at the concentrations indicated for 24 hours in IMDM and 20% FBS and apoptosis assessed by flow cytometry using Annexin-V/PI staining. Briefly, cells are incubated for 20 minutes at room temperature in 50 mM HEPES (pH 7.4) and 150 mM NaCl containing 2 mM calcium chloride with a mixture of 1 μg/mLAnnexin V-FITC (Boehringer Mannhein, Mannhein, Germany) and 2.5 μg/mL propidium iodide (PI; Sigma-Aldrich) before analysis.
(§2) The hematologic effects of lenalidomide could derive from dual effects that are karyotype-dependent, i.e., (1) the potentiation of erythropoiesis in non-del5q erythroid precursors, and (2) selective suppression of del5q clones. To confirm that lenalidomide is selectively cytotoxic to del-5q clones, an AML cell line transformed from an MDS patient with isolated 5q31 deletion was cultivated and the cell line successfully maintained in suspension culture with recombinant myeloid growth factor supplementation. This cell line [designated AML-EH5q] is an AML cell line that harbors the isolated 5q-deletion. […] To evaluate the selectivity of lenalidomide cytotoxic for del5q clones, apoptotic response to lenalidomide and thalidomide was compared in AML-EH5q and U937 (non-del5q) cells by flow cytometry. […] Viability was unaffected at all concentrations for both agents in U937 cells.
In general terms: Flow cytometry measures light scatter and fluorescence of single cells or particles in a stream.

The subject of assay [4] is U937 (non-del5q) cells. As to the kind of experiment: Apoptosis by Annexin-V/PI flow cytometry in U937 cells. Conditions: 24 hours, all concentrations. The format is cell-based. The procedure:
as §1, §2

“Also recorded” adds a separate entry of the source.

Take `N#C/C(=C/c1ccc(O)c(O)c1)C(=O)NCc1ccccc1` [AG490]: the “effect of kinase inhibitor on lenalidomide's potentiation of EPO-induced STAT5 phosphorylation” value in assay [1] is “suppress”. Further, the “effect of kinase inhibitor on lenalidomide-augmented EPO-induced Jak2-phosphorylation” value in assay [1] (inhibitor 30 minutes, CC5013 2 hours, EPO 1 U/ml 10 minutes) is listed as “abrogated”.

Turning to `COc1cc(Nc2c(C#N)cnc3cc(OCCCN4CCN(C)CC4)c(OC)cc23)c(Cl)cc1Cl` [SKI-606], the “effect of kinase inhibitor on lenalidomide's potentiation of EPO-induced STAT5 phosphorylation” value in assay [1] was “suppress”.

Regarding `O=C1CCC(N2C(=O)c3ccccc3C2=O)C(=O)N1` (stereo not drawn) [thalidomide], in assay [2], the “inhibition of CD45 PTP activity” value was “minimal inhibition”. Besides, the “induction of programmed cell death (apoptosis)” value in assay [3] was “comparatively inactive”. Moreover, the viability / apoptosis entry in assay [4] is “comparatively inactive; also recorded: unaffected”.

These data come from patent US20220040263A1, “COMPANION DIAGNOSTIC FOR COMBINATION LENALIDOMIDE AND ERYTHROPOIETIN TREATMENT” (H. Lee Moffitt Cancer Center and Research Institute, Inc., priority 2016, published 2022).
